This test addresses T1, human TLR9 (Homo sapiens, UniProt Q9NR96).
T1 construct: host or cells: HEK293 (HEK-Blue hTLR9)
T1 sequence (Q9NR96 26-1032): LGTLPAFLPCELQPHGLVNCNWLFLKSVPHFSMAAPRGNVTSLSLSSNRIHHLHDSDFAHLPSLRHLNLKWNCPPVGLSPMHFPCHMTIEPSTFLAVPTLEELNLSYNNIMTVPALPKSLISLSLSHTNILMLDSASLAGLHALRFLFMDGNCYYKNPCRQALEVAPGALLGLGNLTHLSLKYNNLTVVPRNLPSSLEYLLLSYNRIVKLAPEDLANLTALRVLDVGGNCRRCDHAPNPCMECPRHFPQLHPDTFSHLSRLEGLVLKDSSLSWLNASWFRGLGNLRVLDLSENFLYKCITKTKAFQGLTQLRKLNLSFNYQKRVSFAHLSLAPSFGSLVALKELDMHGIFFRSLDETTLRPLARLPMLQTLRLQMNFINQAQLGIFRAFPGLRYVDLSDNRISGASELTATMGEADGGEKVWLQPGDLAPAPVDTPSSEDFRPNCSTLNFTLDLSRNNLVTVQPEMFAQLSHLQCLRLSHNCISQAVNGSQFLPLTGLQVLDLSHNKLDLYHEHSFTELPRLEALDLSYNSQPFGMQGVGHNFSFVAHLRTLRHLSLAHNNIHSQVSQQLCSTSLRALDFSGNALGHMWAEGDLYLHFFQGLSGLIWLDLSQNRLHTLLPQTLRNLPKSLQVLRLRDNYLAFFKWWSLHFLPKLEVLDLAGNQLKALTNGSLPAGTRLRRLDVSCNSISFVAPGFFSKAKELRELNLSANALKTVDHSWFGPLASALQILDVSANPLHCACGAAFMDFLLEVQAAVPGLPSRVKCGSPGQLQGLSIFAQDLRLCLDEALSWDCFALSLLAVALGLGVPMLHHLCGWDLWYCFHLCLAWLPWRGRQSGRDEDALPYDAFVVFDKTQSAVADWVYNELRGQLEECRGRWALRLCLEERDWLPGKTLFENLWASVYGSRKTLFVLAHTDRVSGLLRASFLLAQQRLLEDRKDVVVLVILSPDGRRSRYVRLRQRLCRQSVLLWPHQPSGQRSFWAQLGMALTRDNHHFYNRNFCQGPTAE
Kind of test: HEK293-Blue-hTLR-9 cells assay. The format is cell-based. The note with it: HEK293-Blue-hTLR9 cells, ODN2006 stimulation, 20 hrs, SEAP reporter; read-out: HEK/hTLR9 IC50.
As for `[2H]c1ccc2c(N3C[C@@H]4CN(Cc5ccc(N6CC7CC(C6)N7)nc5C)CCN4[C@H](C)C3)ccc(C#N)c2n1` [Example 90, 5-[(4R,9aS)-8-[[6-(3,6-diazabicyclo[3.1.1]heptan-3-yl)-2-methyl-3-pyridyl]methyl]-4-methyl-3,4,6,7,9,9a-hexahydro-1H-pyrazino[1,2-a]pyrazin-2-yl]-2-deuterio-quinoline-8-carbonitrile], the IC50 was found to be 33 nM.

On to `[2H]c1ccc2c(N3C[C@@H]4CN(Cc5cnc(N6C[C@@H]7C[C@H]6CN7)cc5C)CCN4[C@H](C)C3)ccc(C#N)c2n1` [Example 94, 5-[(4R,9aS)-8-[[6-[(1S,4S)-2,5-diazabicyclo[2.2.1]heptan-2-yl]-4-methyl-3-pyridyl]methyl]-4-methyl-3,4,6,7,9,9a-hexahydro-1H-pyrazino[1,2-a]pyrazin-2-yl]-2-deuterio-quinoline-8-carbonitrile], for which the IC50 amounted to 99 nM. To `[2H]c1ccc2c(N3C[C@@H]4CN(CCc5ccnc(N6C[C@@H](N)[C@@H](F)C6)c5)CCN4[C@H](C)C3)ccc(C#N)c2n1` [Example 89, 5-[(4R,9aS)-8-[2-[2-[(3R,4S)-3-amino-4-fluoro-pyrrolidin-1-yl]-4-pyridyl]ethyl]-4-methyl-3,4,6,7,9,9a-hexahydro-1H-pyrazino[1,2-a]pyrazin-2-yl]-2-deuterio-quinoline-8-carbonitrile] belongs 47 nM.

The values above are taken from patent US20220340597A1, “HEXAHYDRO-1H-PYRAZINO[1,2-A]PYRAZINE COMPOUNDS FOR THE TREATMENT OF AUTOIMMUNE DISEASE” (Hoffmann-La Roche Inc., priority 2019, published 2022).
